Laboratory results taken from patent US11613522B2, “Herbicidally active 3-phenylisoxazoline-5-carboxamides of tetrahydro- and dihydrofurancarboxamides” (BAYER AKTIENGESELLSCHAFT, priority 2017, dated 2023).

How the values were obtained:
Format in all cases: in vivo
Pharbitis purpurea [1] = experiment: Post-emergence herbicidal activity against PHBPU; details: Ipomoea purpurea, 504 h, dosage 320 g/ha, rated visually after about 3 weeks
Summary of the method: (§1)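 Post-emergence foliar spray of wettable-powder or emulsion-concentrate formulations (0.5% additive, 600 l/ha water) onto one-leaf-stage greenhouse plants. Percent activity scored by eye after ~3 weeks against untreated plants; 0% equals control growth, 100% equals plant death.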

Amaranthus retroflexus [2] = experiment: Post-emergence herbicidal activity against AMARE; details: Amaranthus retroflexus, 504 h, dosage 320 g/ha, rated visually after about 3 weeks
Summary of the method: as §1

Avena fatua [3] = experiment: Post-emergence herbicidal activity against AVEFA; details: Avena fatua, 504 h, dosage 320 g/ha, rated visually after about 3 weeks
Summary of the method: as §1

Echinochloa crus-galli [4] = experiment: Pre-emergence herbicidal activity against ECHCG; details: Echinochloa crus-galli, 504 h, dosage 80 g/ha, scored visually after about 3 weeks vs untreated controls
Summary of the method: (§2)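 Seeds sown in pots and covered with soil; compounds formulated as WP or EC applied to the soil surface as aqueous suspension or emulsion with 0.5% additive at 600 l/ha water. Pots held in greenhouse; activity scored visually about 3 weeks later as % versus untreated controls (100% = dead).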

Viola tricolor [5] = experiment: Pre-emergence herbicidal activity against VIOTR; details: Viola tricolor, 504 h, dosage 80 g/ha, scored visually after about 3 weeks vs untreated controls
Summary of the method: as §2

Amaranthus retroflexus [6] = experiment: Pre-emergence herbicidal activity against AMARE; details: Amaranthus retroflexus, 504 h, dosage 80 g/ha, scored visually after about 3 weeks vs untreated controls
Summary of the method: as §2

Pharbitis purpurea [7] = experiment: Pre-emergence herbicidal activity against PHBPU; details: dosage 80 g/ha, scored visually after about 3 weeks vs untreated controls
Excerpt: (§3) 1. Pre-emergence herbicidal action against harmful plants and crop plant compatibility Seeds of monocotyledonous and dicotyledonous weed plants and crop plants are placed in plastic or wood fiber pots and covered with soil. The compounds of the invention, formulated in the form of wettable powders (WP) or as emulsion concentrates (EC), are then applied onto the surface of the covering soil as aqueous suspension or emulsion with addition of 0.5% additive at a water application rate of 600 l/ha (converted). After the treatment, the pots are placed in a greenhouse and kept under good growth conditions for the trial plants. After about 3 weeks, the effect of the preparations is scored visually in comparison with untreated controls as percentages. For example, 100% activity=the plants have died, 0% activity=like control plants. [table]

Avena fatua [8] = experiment: Pre-emergence herbicidal activity against AVEFA; details: Avena fatua, 504 h, dosage 80 g/ha, scored visually after about 3 weeks vs untreated controls, read-out: Pre-emergence herbicidal activity in % against AVEVA (AVEFA)
Summary of the method: as §2

Stellaria media [9] = experiment: Pre-emergence herbicidal activity against STEME; details: Stellaria media, 504 h, dosage 80 g/ha, scored visually after about 3 weeks vs untreated controls
Summary of the method: as §2

Setaria viridis = experiment: Pre-emergence herbicidal activity against SETVI; details: Setaria viridis, 504 h, dosage 80 g/ha, scored visually after about 3 weeks vs untreated controls
Summary of the method: as §2

Lolium rigidum [10] = experiment: Pre-emergence herbicidal activity against LOLRI; details: Lolium rigidum, 504 h, dosage 80 g/ha, scored visually after about 3 weeks vs untreated controls
Summary of the method: as §2

Viola tricolor [11] = experiment: Post-emergence herbicidal activity against VIOTR; details: Viola tricolor, 504 h, dosage 320 g/ha, rated visually after about 3 weeks
Summary of the method: as §1

Abutilon theophrasti = experiment: Post-emergence herbicidal activity against ABUTH; details: Abutilon theophrasti, 504 h, dosage 320 g/ha, rated visually after about 3 weeks
Summary of the method: as §1

Hordeum murinum [12] = experiment: Pre-emergence herbicidal activity against HORMU; details: Hordeum murinum, 504 h, dosage 80 g/ha
Summary of the method: as §2

Veronica persica [13] = experiment: Post-emergence herbicidal activity against VERPE; details: Veronica persica, 504 h, dosage 320 g/ha, rated visually after about 3 weeks
Summary of the method: as §1

Echinochloa crus-galli [14] = experiment: Post-emergence herbicidal activity against ECHCG; details: Echinochloa crus-galli, 504 h, dosage 320 g/ha, rated visually after about 3 weeks
Summary of the method: as §1

Hordeum murinum [15] = experiment: Post-emergence herbicidal activity against HORMU; details: Hordeum murinum, 504 h, dosage 320 g/ha, rated visually after about 3 weeks
Summary of the method: as §1

Lolium rigidum [16] = experiment: Post-emergence herbicidal activity against LOLRI; details: Lolium rigidum, 504 h, dosage 320 g/ha, rated visually after about 3 weeks
Summary of the method: as §1

Veronica persica [17] = experiment: Pre-emergence herbicidal activity against VERPE; details: Veronica persica, 504 h, dosage 80 g/ha
Summary of the method: as §2

Polygonum convolvulus [18] = experiment: Post-emergence herbicidal activity against POLCO; details: Fallopia convolvulus, 504 h, dosage 320 g/ha, rated visually after about 3 weeks
Summary of the method: as §1

Polygonum convolvulus [19] = experiment: Pre-emergence herbicidal activity against POLCO; details: Fallopia convolvulus, 504 h, dosage 80 g/ha, scored visually after about 3 weeks vs untreated controls
Summary of the method: as §2

[20] = Pre-emergence herbicidal action against harmful plants (summary of the tables); details: 504 h, application rate of 0.08 kg of active substance or less per hectare, read-out: herbicidal action, pre-emergence treatment (very good activity)
Excerpt: as §3, with “plants.” for “plants. [table]”
As shown by the results, compounds according to the invention such as, for example, the compounds No. I-02 and other compounds from the tables (I-05, I-10, I-11, I-12, I-13, I-14, I-15, I-16, I-17, I-18, I-19, I-20, I-21, I-22, I-23, I-24, I-25, I-26, I-27, I-28, I-29) have, when used for pre-emergence treatment, very good activity (80% to 100% herbicidal action) against harmful plants such as Abutilon theophrasti, Alopecurus myosuroides, Amaranthus retroflexus, Avena fatua, Cyperus esculentus, Echinochloa crus-galli, Hordeum murinum, Lolium rigidum, Pharbitis purpurea, Polygonum convolvulus, Setaria viridis, Stellaria media, Veronica persica and Viola tricolor at an application rate of 0.08 kg of active substance or less per hectare.

Stellaria media [21] = experiment: Post-emergence herbicidal activity against STEME; details: Stellaria media, 504 h, dosage 320 g/ha, rated visually after about 3 weeks
Summary of the method: as §1

Alopecurus myosuroides [22] = experiment: Pre-emergence herbicidal activity against ALOMY; details: Alopecurus myosuroides, 504 h, dosage 80 g/ha, scored visually after about 3 weeks vs untreated controls
Summary of the method: as §2

Alopecurus myosuroides [23] = experiment: Post-emergence herbicidal activity against ALOMY; details: Alopecurus myosuroides, 504 h, dosage 320 g/ha, rated visually after about 3 weeks
Summary of the method: as §1

Structure (SMILES)	pest or weed control at 320 g/ha (Pharbitis purpurea [1])	pest or weed control at 320 g/ha (Amaranthus retroflexus [2])	pest or weed control at 320 g/ha (Avena fatua [3])	pest or weed control at 80 g/ha (Echinochloa crus-galli [4])	pest or weed control at 80 g/ha (Viola tricolor [5])	pest or weed control at 80 g/ha (Amaranthus retroflexus [6])	Pre-emergence herbicidal activity in % against PHBPU (Pharbitis purpurea [7])	pest or weed control at 80 g/ha (Avena fatua [8])	pest or weed control at 80 g/ha (Stellaria media [9])	pest or weed control at 80 g/ha (Setaria viridis)	pest or weed control at 80 g/ha (Lolium rigidum [10])	pest or weed control at 320 g/ha (Viola tricolor [11])	pest or weed control at 320 g/ha (Abutilon theophrasti)	pest or weed control at 80 g/ha (Hordeum murinum [12])	pest or weed control at 320 g/ha (Veronica persica [13])	pest or weed control at 320 g/ha (Echinochloa crus-galli [14])	pest or weed control at 320 g/ha (Hordeum murinum [15])	pest or weed control at 320 g/ha (Lolium rigidum [16])	pest or weed control at 80 g/ha (Veronica persica [17])	pest or weed control at 320 g/ha (Polygonum convolvulus [18])	further results
C=C[C@]1(C(=O)N[C@@H]2CO[C@H](C(=O)NOCC)C2)CC(c2cc(F)cc(F)c2)=NO1 (mixture of isomers) [Example I-12, (5S)-3-(3,5-difluorophenyl)-N-[cis-5-(ethoxycarbamoyl)tetrahydrofuran-3-yl]-5-vinyl-4H-isoxazole-5-carboxamide]	80%	80%	100%	100%	100%	100%	90%	100%	100%	100%	100%	80%	80%	100%	80%	90%	90%	90%	100%	80%	pest or weed control at 80 g/ha (Polygonum convolvulus [19]): 100%; pest or weed control at 80 g/ha [20]: 80 to 100%; pest or weed control at 320 g/ha (Stellaria media [21]): 90%; pest or weed control at 80 g/ha (Alopecurus myosuroides [22]): 100%; pest or weed control at 320 g/ha (Alopecurus myosuroides [23]): 90%
C=C[C@]1(C(=O)N[C@@H]2CO[C@H](C(=O)NS(=O)(=O)C(F)(F)F)C2)CC(c2cc(F)cc(F)c2)=NO1 (mixture of isomers) [Example I-14, (5S)-3-(3,5-difluorophenyl)-N-[cis-5-(trifluoromethylsulfonylcarbamoyl)tetrahydrofuran-3-yl]-5-vinyl-4H-isoxazole-5-carboxamide]	80%	80%	80%	100%	100%	100%	90%	90%	90%	100%	100%	100%	90%	90%	90%	80%	80%	90%	90%	80%	pest or weed control at 80 g/ha (Polygonum convolvulus [19]): 100%; pest or weed control at 80 g/ha [20]: 80 to 100%; pest or weed control at 320 g/ha (Stellaria media [21]): 90%; pest or weed control at 80 g/ha (Alopecurus myosuroides [22]): 100%; pest or weed control at 320 g/ha (Alopecurus myosuroides [23]): 90%
